Experimental data: ChEMBL document CHEMBL3885881, “DrugMatrix”

Species: Rattus norvegicus
Format: toxicity, organism-based, Sprague-Dawley
Conditions: in vivo, po, 24 h, route oral GAVAGE, time 1 day, vehicle 100 % WATER; for ABSOLUTE BASOPHIL / ABSOLUTE EOSINOPHIL / ABSOLUTE LYMPHOCYTE / ABSOLUTE MONOCYTE / BASOPHIL / EOSINOPHIL / ERYTHROCYTE COUNT / HEMATOCRIT / HEMOGLOBIN / LEUKOCYTE COUNT / LYMPHOCYTE / MEAN CORPUSCULAR HEMOGLOBIN / MEAN CORPUSCULAR VOLUME / MONOCYTE / NEUTROPHIL / PLATELET COUNT: tissue Blood; for ALANINE AMINOTRANSFERASE / ALBUMIN / ALKALINE PHOSPHATASE / ASPARTATE AMINOTRANSFERASE / BLOOD UREA NITROGEN / CARBON DIOXIDE / CHLORIDE / CHOLESTEROL / CREATINE PHOSPHOKINASE / CREATININE / GLUCOSE / LACTATE DEHYDROGENASE / LIPASE / PHOSPHORUS / POTASSIUM / SODIUM / TOTAL BILIRUBIN / TOTAL PROTEIN / URIC ACID: tissue Plasma
[1] = 0 mg/kg, vehicle control, dose level Control

Description: DrugMatrix - Regimen: Single

**Q.** How did the ABSOLUTE BASOPHIL [1] turn out when `CCOC(=O)N1CCC(=C2c3ccc(Cl)cc3CCc3cccnc32)CC1` [LORATADINE] was run?
**A.** 63.3 cells/µL

**Q.** And the ABSOLUTE EOSINOPHIL [1]?
**A.** 66.7 cells/µL

**Q.** What about the ABSOLUTE LYMPHOCYTE [1] of the same compound?
**A.** 8010 cells/µL

**Q.** What about the ABSOLUTE MONOCYTE [1] of the same compound?
**A.** 240 cells/µL

**Q.** And the BASOPHIL [1]?
**A.** 0.6%

**Q.** What about the EOSINOPHIL [1] of the same compound?
**A.** 0.6%

**Q.** What about the “ERYTHROCYTE COUNT” value [1] of the same compound?
**A.** 6.25 x10E6/uL

**Q.** What about the HEMATOCRIT [1] of the same compound?
**A.** 40.47%

**Q.** And the HEMOGLOBIN [1]?
**A.** 12.83 G/DL

**Q.** What about the “LEUKOCYTE COUNT” value [1] of the same compound?
**A.** 10.19 x10E3/uL

**Q.** What about the LYMPHOCYTE [1] of the same compound?
**A.** 78.7%

**Q.** And the “MEAN CORPUSCULAR HEMOGLOBIN” value [1]?
**A.** 20.53 pg

**Q.** And the “MEAN CORPUSCULAR VOLUME” value [1]?
**A.** 64.67 fL

**Q.** What about the MONOCYTE [1] of the same compound?
**A.** 2.5%

**Q.** What about the NEUTROPHIL [1] of the same compound?
**A.** 17.07%

**Q.** And the “PLATELET COUNT” value [1]?
**A.** 1297 x10E3/uL

**Q.** And the “ALANINE AMINOTRANSFERASE” value [1]?
**A.** 32.67 u/L

**Q.** What about the ALBUMIN [1] of the same compound?
**A.** 3.9 G/DL

**Q.** What about the “ALKALINE PHOSPHATASE” value [1] of the same compound?
**A.** 374 u/L

**Q.** What about the “ASPARTATE AMINOTRANSFERASE” value [1] of the same compound?
**A.** 64.33 u/L

**Q.** What about the “BLOOD UREA NITROGEN” value [1] of the same compound?
**A.** 14 mg/dL

**Q.** And the “CARBON DIOXIDE” value [1]?
**A.** 45.67 mmol/L

**Q.** What about the CHLORIDE [1] of the same compound?
**A.** 103 MEQ/L

**Q.** What about the CHOLESTEROL [1] of the same compound?
**A.** 82.67 mg/dL

**Q.** What about the “CREATINE PHOSPHOKINASE” value [1] of the same compound?
**A.** 216.33 u/L

**Q.** And the CREATININE [1]?
**A.** 0.17 mg/dL

**Q.** And the GLUCOSE [1]?
**A.** 161.33 mg/dL

**Q.** What about the “LACTATE DEHYDROGENASE” value [1] of the same compound?
**A.** 103.67 u/L

**Q.** What about the LIPASE [1] of the same compound?
**A.** 8.67 u/L

**Q.** What about the PHOSPHORUS [1] of the same compound?
**A.** 11 mg/dL

**Q.** What about the POTASSIUM [1] of the same compound?
**A.** 6.83 MEQ/L

**Q.** And the SODIUM [1]?
**A.** 144.67 MEQ/L

**Q.** And the “TOTAL BILIRUBIN” value [1]?
**A.** 0.27 mg/dL

**Q.** And the “TOTAL PROTEIN” value [1]?
**A.** 6.27 G/DL

**Q.** What about the “URIC ACID” value [1] of the same compound?
**A.** 0.67 mg/dL

**Q.** And the ABSOLUTE BASOPHIL (2000 mg/kg, dose level High)?
**A.** 63.3 cells/µL

**Q.** And the ABSOLUTE EOSINOPHIL (2000 mg/kg, dose level High)?
**A.** 56.7 cells/µL

**Q.** What about the ABSOLUTE LYMPHOCYTE (2000 mg/kg, dose level High) of the same compound?
**A.** 5990 cells/µL

**Q.** And the ABSOLUTE MONOCYTE (2000 mg/kg, dose level High)?
**A.** 100 cells/µL

**Q.** And the BASOPHIL (2000 mg/kg, dose level High)?
**A.** 0.97%

**Q.** What about the EOSINOPHIL (2000 mg/kg, dose level High) of the same compound?
**A.** 0.77%

**Q.** And the “ERYTHROCYTE COUNT” value (2000 mg/kg, dose level High)?
**A.** 7.26 x10E6/uL

**Q.** And the HEMATOCRIT (2000 mg/kg, dose level High)?
**A.** 47.47%

**Q.** And the HEMOGLOBIN (2000 mg/kg, dose level High)?
**A.** 14.97 G/DL

**Q.** And the “LEUKOCYTE COUNT” value (2000 mg/kg, dose level High)?
**A.** 6.8 x10E3/uL

**Q.** And the LYMPHOCYTE (2000 mg/kg, dose level High)?
**A.** 87.87%

**Q.** And the “MEAN CORPUSCULAR HEMOGLOBIN” value (2000 mg/kg, dose level High)?
**A.** 20.6 pg

**Q.** What about the “MEAN CORPUSCULAR VOLUME” value (2000 mg/kg, dose level High) of the same compound?
**A.** 65.27 fL

**Q.** And the MONOCYTE (2000 mg/kg, dose level High)?
**A.** 1.5%

**Q.** What about the NEUTROPHIL (2000 mg/kg, dose level High) of the same compound?
**A.** 8.47%

**Q.** And the “PLATELET COUNT” value (2000 mg/kg, dose level High)?
**A.** 1455 x10E3/uL

**Q.** What about the “ALANINE AMINOTRANSFERASE” value (2000 mg/kg, dose level High) of the same compound?
**A.** 19.67 u/L

**Q.** And the ALBUMIN (2000 mg/kg, dose level High)?
**A.** 4.17 G/DL

**Q.** And the “ALKALINE PHOSPHATASE” value (2000 mg/kg, dose level High)?
**A.** 348 u/L

**Q.** What about the “ASPARTATE AMINOTRANSFERASE” value (2000 mg/kg, dose level High) of the same compound?
**A.** 59.33 u/L

**Q.** And the “BLOOD UREA NITROGEN” value (2000 mg/kg, dose level High)?
**A.** 11.33 mg/dL

**Q.** And the “CARBON DIOXIDE” value (2000 mg/kg, dose level High)?
**A.** 39.67 mmol/L

**Q.** What about the CHLORIDE (2000 mg/kg, dose level High) of the same compound?
**A.** 104 MEQ/L

**Q.** What about the CHOLESTEROL (2000 mg/kg, dose level High) of the same compound?
**A.** 66.33 mg/dL

**Q.** What about the “CREATINE PHOSPHOKINASE” value (2000 mg/kg, dose level High) of the same compound?
**A.** 336 u/L

**Q.** And the CREATININE (2000 mg/kg, dose level High)?
**A.** 0.3 mg/dL

**Q.** What about the GLUCOSE (2000 mg/kg, dose level High) of the same compound?
**A.** 156 mg/dL

**Q.** And the “LACTATE DEHYDROGENASE” value (2000 mg/kg, dose level High)?
**A.** 112.67 u/L

**Q.** What about the LIPASE (2000 mg/kg, dose level High) of the same compound?
**A.** 8.33 u/L

**Q.** What about the PHOSPHORUS (2000 mg/kg, dose level High) of the same compound?
**A.** 12.4 mg/dL

**Q.** And the POTASSIUM (2000 mg/kg, dose level High)?
**A.** 7.03 MEQ/L

**Q.** And the SODIUM (2000 mg/kg, dose level High)?
**A.** 145.67 MEQ/L

**Q.** What about the “TOTAL BILIRUBIN” value (2000 mg/kg, dose level High) of the same compound?
**A.** 0.3 mg/dL

**Q.** What about the “TOTAL PROTEIN” value (2000 mg/kg, dose level High) of the same compound?
**A.** 6.8 G/DL

**Q.** What about the “URIC ACID” value (2000 mg/kg, dose level High) of the same compound?
**A.** 0.8 mg/dL
